Patent US20140037642A1, “METHODS AND COMPOSITIONS RELATING TO INHIBITION OF IGF-1R” (AMGEN INC., priority 2011, published 2014)
Several values for one entry are separate records, joined by “and”; a condition that tells them apart may be missing. Equal entries are not always repeated. Where two headings read alike, the source gives them in different places.

Legend:
colorectal cancer (CRC) = settings: Study Drug 6 mg/kg + panitumumab 6 mg/kg
From the text: Another study was done in subjects with colorectal cancer (CRC).

[1] = test system: metastatic pancreatic cancer patients; experiment: Placebo-controlled, randomized phase 2 study plus gemcitabine; format: in vivo, human; settings: for 6-Month OS Rate (95% CI) / 12-Month OS Rate (95% CI) / Median OS, Months (95% CI) / Median PFS, Months (95% CI): conatumumab 10 mg/kg Q2W or ganitumab 12 mg/kg Q2W; for Stratified HR (95% CI), OS / Stratified HR (95% CI), PFS: versus placebo plus gemcitabine
Method: The primary endpoint was six month overall survival rate.
Key inclusion criteria were histologically or cytologically documented metastatic adenocarcinoma of the pancreas, age eighteen years or older, ECOG PS 0 or 1, adequate hematologic, hepatic, renal, and coagulation function, amylase and lipase≦2.0×ULN, adequately controlled type 1 or 2 diabetes (amended during protocol to fasting blood glucose<[…] only), fasting blood glucose≦[…], HbAlc<8%, and written informed consent.
Key exclusion criteria were uncontrolled cardiac disease and prior chemotherapy or radiation in the adjuvant or metastatic setting.

[2] = test system: metastatic pancreatic cancer patients; settings: for OS, HR (95% CI) for one unit increment in logAUCss / PFS, HR (95% CI) for one unit increment in logAUCss: univariate Cox model
Method: Multivariate analysis was performed to evaluate the effect of exposure on OS and PFS adjusting for potential confounding factors using Cox proportional hazard models with a forward selection technique. All baseline factors were initial candidates in the forward selection model. Only the most statistically significant variables were added to the final model after the forward selection process.
The effect of exposure on the incidence of selected adverse events (hearing and vestibular disorders, hepatic disorders, hyperglycemia, infusion reaction, neutropenia, rash and skin-related toxicity, thrombocytopenia, and venous embolic and thrombotic events) was summarized with descriptive statistics.
The effect of exposure on changes in selected laboratory values (aspartate transaminase, alanine transaminase, fasting glucose, total neutrophils, and platelets) was assessed by linear regression.

[3] = test system: metastatic pancreatic cancer patients; experiment: Overall survival in baseline circulating biomarker subgroups of the phase 2 study; format: in vivo, human; set-up: Median OS: unit not given here
From the text: To establish the relationship between levels of these baseline markers and overall survival, a Cox proportional hazard model was used to calculate hazard ratios (HR) using normalized log transformed marker concentrations. This analysis tests the risk of death associated with a unit increase in the normalized log baseline biomarker and this risk is expressed as a hazard ratio. Because of the small sample size, it is difficult to dissect prognostic associations from relationships that are modified by treatment with ganitumab relative to placebo, i.e., predictive. This is because the addition of treatment effect adds a variable to the analysis that compromises the power of the test masking significant predictive relationships that may exist. However even a prognostic relationship identified in this analysis is important because it informs the hypothesized relationship between circulating bioavailable ligands and the adaptation of the tumor to IGF-1R dependent progression, and in turn sensitivity to inhibitors that block IGF-1R or downstream signaling pathways.
This allows a direct test of the predictive value of using these markers in a dichotomized way to predict OS in pancreatic cancer patients that are treated with inhibitors of IGF-1R.
To represent these relationships Kaplan-Maier plots were generated that show the OS for the high and low subgroups by plotting the fraction of patients in each sub-group that survive against time.

non-CRC tumors = settings: Study Drug 6 mg/kg + panitumumab 6 mg/kg
[4] = patients with measurable disease at baseline, plus gemcitabine
[5] = plus gemcitabine, listed as ganitumab
[6] = Ganitumab and Placebo (logAUCss = 0)
[7] = multivariate Cox model, ganitumab-treated arm
[8] = Subject #1, Nerve Sheath, 3 mg/Kg
[9] = Subject #4, Colorectal, 10 mg/Kg
[10] = Subject #8, diagnosis Unknown, 1 mg/Kg
[11] = Subject #10, Adenoid R eye, 20 mg/Kg
[12] = Subject #11, Carcinoid, 3 mg/Kg
[13] = Subject #11, Carcinoid, 3 mg/Kg cohort
[14] = twelve subjects, 1 to 20 mg/kg, RECIST

## Ganitumab
Colorectal cancer (CRC)
  Wk 8 change (RECIST): −27%
Colorectal cancer (CRC); CT
  Wk 8 change (WHO): −39%
[1]; [4]
  Best Overall Response: Confirmed CR - n (%): 0 (0) n (%)
  Best Overall Response: Confirmed PR - n (%): 4 (10) n (%)
  Best Overall Response: PD - n (%): 13 (33) n (%)
  Best Overall Response: SD (Includes Unconfirmed PR) - n (%): 16 (41) n (%)
  Best Overall Response: Unconfirmed PR - n (%): 0 (0) n (%)
  Best Overall Response: Unknown - n (%): 6 (15) n (%)
[1]; plus gemcitabine
  rate of SD+PR: 51%
  6-Month OS Rate (95% CI): 57% (41, 70)
  12-Month OS Rate (95% CI): 39% (25, 54)
  Median OS, Months (95% CI): 8.7 (5.3, 12.2) Months
  Median PFS, Months (95% CI): 5.1 (2.8, 5.8) Months
[1]; [5]
  6-Month OS Rate (95% CI): 57%
  12-Month OS Rate (95% CI): 39%
  Median OS, Months (95% CI): 8.7 Months
  Median PFS, Months (95% CI): 5.1 Months
[1]
  Stratified HR (95% CI), OS: 0.67 (0.41, 1.12)
  Stratified HR (95% CI), PFS: 0.65 (0.41, 1.04)
[1]; listed as ganitumab
  Stratified HR (95% CI), OS: 0.67
  Stratified HR (95% CI), PFS: 0.65
[2]; Ganitumab Only
  OS, HR (95% CI) for one unit increment in logAUCss: 0.0421 (0.0089, 0.1983)
  PFS, HR (95% CI) for one unit increment in logAUCss: 0.0611 (0.0160, 0.2327)
[2]; [6]
  OS, HR (95% CI) for one unit increment in logAUCss: 0.8288 (0.6978, 0.9845)
  PFS, HR (95% CI) for one unit increment in logAUCss: 0.8322 (0.7111, 0.9741)
[2]; [7]
  Log AUCss HR, effect on Overall Survival: 0.0842
  Log AUCss HR, effect on Progression Free Survival: 0.1355
  Log AUCss Parameter Estimate, effect on Overall Survival: −2.4742
  Log AUCss Parameter Estimate, effect on Progression Free Survival: −1.9986
[3]; Free IGF-1 high subgroup
  difference in median OS, ganitumab treatment arm versus placebo arm: 7.59 months
[3]; IGF-2 High (>=median)
  Median OS: 368
  OS HR, treatment vs placebo: 0.24
[3]; IGF-2 Low (<median)
  Median OS: 217.5
  OS HR, treatment vs placebo: 0.95
[3]; IGF-BP1 High (>=median)
  Median OS: 170
  OS HR, treatment vs placebo: 0.5
[3]; IGF-BP1 Low (<median)
  OS HR, treatment vs placebo: 0.41
[3]; IGF-BP2 High (>=median)
  Median OS: 165
  OS HR, treatment vs placebo: 0.69
[3]; IGF-BP2 Low (<median)
  Median OS: 487
  OS HR, treatment vs placebo: 0.19
[3]; IGF-BP3 High (>=median)
  Median OS: 487
  OS HR, treatment vs placebo: 0.28
[3]; IGF-BP3 Low (<median)
  Median OS: 168
  OS HR, treatment vs placebo: 0.94
[3]; IGF-BP4 High (>=median)
  Median OS: 368
  OS HR, treatment vs placebo: 0.39
[3]; IGF-BP4 Low (<median)
  Median OS: 174.5
  OS HR, treatment vs placebo: 0.63
[3]; Total IGF-1 High (>=median)
  Median OS: 487
  OS HR, treatment vs placebo: 0.25
[3]; Total IGF-1 Low (<median)
  Median OS: 142
  OS HR, treatment vs placebo: 0.59
Tumors in human subjects; CR subject, Ewing's sarcoma, 12 mg/kg
  time to significant symptomatic relief after the first dose: two
Tumors in human subjects; CR subject, Ewing's sarcoma, 12 mg/kg at 14 day intervals
  response according to RECIST at day 434: CR (100% reduction in tumor dimension)
Tumors in human subjects; CR subject, Ewing's sarcoma, 12 mg/kg, day 50
  PET scan, uptake of labeled glucose by tumor: no detectable uptake of labeled glucose
Tumors in human subjects; CR subject, Ewing's sarcoma, 12 mg/kg, day 50, CT scan
  decrease in tumor size from baseline (RECIST): 78%
Tumors in human subjects; PR subject, mid gut carcinoid tumor, 3 mg/kg at 14 day intervals
  maximum RECIST tumor dimension reduction: 63%
Tumors in human subjects; PR subject, mid gut carcinoid tumor, 3 mg/kg, after 33 weeks in the trial
  RECIST tumor dimension decrease: 48%
Tumors in human subjects; PR subject, mid gut carcinoid tumor, 3 mg/kg, after 33 weeks in the trial, baseline 13.1 cm
  RECIST tumor dimension: 6.8 cm
Tumors in human subjects; [8]
  Day 50 Tumor (cm): 1.4 cm
  Day 50 Tumor, percent change vs baseline: (+27%)
Tumors in human subjects; Subject #2, Prostate, 10 mg/Kg
  Day 50 Tumor (cm): 18.8 cm
  Day 50 Tumor, percent change vs baseline: (+21%)
Tumors in human subjects; Subject #3, Ovarian, 20 mg/Kg
  Day 50 Tumor (cm): 18.6 cm
  Day 50 Tumor, percent change vs baseline: (+17%)
Tumors in human subjects; [9]
  Day 50 Tumor (cm): 45.3 cm
  Day 50 Tumor, percent change vs baseline: (+7%)
Tumors in human subjects; Subject #5, Thymus, 1 mg/Kg
  Day 50 Tumor (cm): 10.4 cm
  Day 50 Tumor, percent change vs baseline: (+4%)
Tumors in human subjects; Subject #6, Melanoma, 10 mg/Kg
  Day 50 Tumor (cm): 28.4 cm
  Day 50 Tumor, percent change vs baseline: (+1%)
Tumors in human subjects; Subject #7, Adenoid, 1 mg/Kg
  Day 50 Tumor (cm): 30.9 cm
  Day 50 Tumor, percent change vs baseline: (−1%)
Tumors in human subjects; [10]
  Day 50 Tumor (cm): 18.2 cm
  Day 50 Tumor, percent change vs baseline: (−2%)
  Day 106 Tumor (cm): 18.9 cm
  Day 106 Tumor, percent change vs baseline: (+2%)
  Day 162 Tumor (cm): 23.2 cm
  Day 162 Tumor, percent change vs baseline: (+25%)
Tumors in human subjects; Subject #9, Breast, 20 mg/Kg
  Day 50 Tumor (cm): 4.7 cm
  Day 50 Tumor, percent change vs baseline: (−2%)
Tumors in human subjects; [11]
  Day 50 Tumor (cm): 35.2 cm
  Day 50 Tumor, percent change vs baseline: (−9%)
Tumors in human subjects; [12]
  Day 50 Tumor (cm): 14 cm
  Day 50 Tumor, percent change vs baseline: (+7%)
  Day 106 Tumor (cm): 11 cm
  Day 106 Tumor, percent change vs baseline: (−16%)
  Day 169 Tumor (cm): 10.6 cm
  Day 169 Tumor, percent change vs baseline: (−19%)
  Day 225 Tumor (cm): 8.4 cm
  Day 225 Tumor, percent change vs baseline: (−36%)
Tumors in human subjects; [13]
  Day 281 Tumor (cm): 8.2 cm
  Day 281 Tumor, percent change vs baseline: (−37%)
  Day 338 Tumor (cm): 6.8 cm
  Day 338 Tumor, percent change vs baseline: (−48%)
Tumors in human subjects; Subject #12, Ewing's, 12 mg/Kg
  Day 50 Tumor (cm): 2.2 cm
  Day 50 Tumor, percent change vs baseline: (−78%)
  Day 85 Tumor, percent change vs baseline: (−100%)
Tumors in human subjects; Subject #12, Ewing's, 12 mg/Kg, listed as Study Drug
  Day 85 Tumor (cm): 0 cm and 0.0 cm
Tumors in human subjects; [14]
  number of subjects with a reduction in tumor size of at least 30%: two
  number of subjects with best response progressive disease (PD): two
non-CRC tumors; subject with a GE Junction tumor
  best response (WHO criteria): stable disease
non-CRC tumors; subject with a pancreatic tumor
  best response (WHO criteria): stable disease
non-CRC tumors; subject with a thyroid tumor
  best response (WHO criteria): progressive disease
